One assay concerns MC3T3-E1 cells. As to the kind of experiment: RT-qPCR mRNA expression. In kind it is cell-based, mouse. The settings on record: MC3T3-E1, 3 μM; for mRNA expression of Bglap2, Colla1, Lox and Alpl: 14 days. How it is done:
(§1) Total RNA was extracted using the SV Total RNA Isolation kit (Promega) following the supplier's instructions. cDNA was synthesized from about 0.5 μg RNA using the First Strand cDNA Synthesis kit (Roche) as described by the supplier. The resulting cDNAs were subjected to quantitative PCR amplification with a real-time cycler using the QUANTITECT™ SYBR® Green PCR Kit (Qiagen, Hilden, Germany) for the genes Alpl, Fas, Lox, Tet1, Tet2, and TAQMAN® Gene expression Master Mix (Applied Biosystems, Foster City, Calif., USA) for measuring Runx2, Bglap2, Colla1, Tnfsf11, and 18S rRNA expression (for primers, see Table 1). SYBR-Green RT-qPCR was started with an initial denaturation step at 95° C. for 10 minutes and then continued with 45 cycles consisting of 30 seconds denaturation at 95° C., 30 seconds annealing at primer-specific temperatures, and extension at 72° C. For measurement of the TAQMAN® assays, an initial denaturation at 95° C. for 10 minutes was applied, followed by 45 cycles alternating 60 seconds at 60° C. and 15 seconds at 95° C. All RT-qPCR assays were performed in triplicate, and expression was evaluated using the comparative quantification method (Pfaffl, Nucleic Acids Res., 29:e45 (2001)).

In the next assay the test system is RAW 264.7 cells. As to the kind of experiment: RT-qPCR mRNA expression. In kind it is cell-based, mouse. The following applies: RAW 264.7, 3 μM. How it is done:
as §1

A further assay deals with MLO-Y4 cells. Nature of the assay: RT-qPCR mRNA expression. The format is cell-based, mouse. The following applies: MLO-Y4, 3 μM. As to the method: as §1
For assay [1], the system named is neonatal calvarial explants. As to the kind of experiment: ECM mineralization by Alizarin Red stain in calvarial explants. In kind it is cell-based, mouse. The following applies: newborn calvarial explants, 3 μM. How it is done:
Calvariae from 2 to 3-day-old and from 7-week old C57BL/6 mice were dissected aseptically. The calvarial bone explants were cultured in 48-well plates in α-MEM (Biochrom) containing 10% FCS (Biochrom), 50 μg/mL ascorbic acid (Sigma-Aldrich), 5 mM β-glycerophosphate (Sigma-Aldrich), and 10 μg/mL gentamicin (Sigma-Aldrich). […] Thereafter, one part of the calvariae were fixed for 1 hour in 4% para-formaldehyde (PFA), and mineralization was measured by Alizarin Red S stain (Sigma-Aldrich). For this purpose, Alizarin Red S dye was extracted using 10% cetylpyridinium chloride (CPC) in 10 mM sodiumphosphate (pH=7.0) for 45 minutes at room temperature. Alizarin Red S absorbance was measured at 562 nm in a multi-plate reader (Tecan, Maennedorf, Switzerland) and normalized to total protein amount measured by bicinchoninic acid assay (Thermo Fisher Scientific, Waltham, Mass., USA). From the other part of the calvariae, total RNA was extracted.

The test system of a further assay is female C57BL/6 mice. As to the kind of experiment: microCT of femur after 5 weeks of daily GSK126 (in vivo Ezh2 inhibition). On the set-up: species or system mouse. The settings on record: for Ct. TV: cortical bone; for Ct. TV / Ct. Ar / Ct. BV / Ct. Mat.M.Dn / Ct. Th / Ec. Ar / Ps.Ar: femoral midshaft; for Ct. TV / Tb.N / Tb.Sp / Tb.Th / Ct. Ar / Ct. BV / Ct. Mat.M.Dn / Ct. Th / Ec. Ar / Ps.Ar: 5 weeks, mean; for Tb.N / Tb.Sp / Tb.Th: distal femur metaphysis. As to the method: Female C57BL/6 mice (Harlan Laboratories) were maintained on a 12-hour light/12-hour dark cycle and were permitted ad libitum access to food and water. For efficacy studies, 6-week old mice received daily intraperitoneal (IP) injections of GSK126 at 15 mg/kg, 50 mg/kg, or vehicle (DMSO) in 20% Captisol adjusted to pH 4-4.5 with IN acetic acid (McCabe et al., Nature, 492:108-112 (2012)) for 5 weeks.
The dosage, delivery schedule, and administration route were similar to those described elsewhere (McCabe et al., Nature, 492:108-112 (2012)). Animals were weighed daily. To label mineralizing bone surfaces, mice received subcutaneous injections of calcein (10 mg/kg) 5 days and 24 hours before euthanasia.
(§2) The quantitative analysis of the femoral metaphysis was performed using a vivaCT 40 scanner (SCANCO Medical AG) with the following parameters: E=55 kVp, 1=145 μA, integration time=300 ms. A 10.5 μm voxel size using a threshold of 220 was applied to all scans at high resolution. Using two-dimensional data from scanned slices, 3D analysis was generated and used to calculate morphometric parameters defining trabecular bone mass and micro-architecture, including Bone Volume/Tissue volume (BV/TV), trabecular number (Tb.N.), trabecular thickness (Tb.Th.), trabecular spacing (Tb.Sp.), and the structure model index (SMI), an indicator of plate-like versus rod-like trabecular architecture.

The subject of assay [2] is sham or OVX female C57BL/6 mice. As to the kind of experiment: microCT of femur in estrogen-deficient ovariectomy (OVX) model, GSK126 for 6 weeks. In kind it is in vivo, mouse. The settings on record: for SMI / Tb.N / Tb.Sp / Tb.Th / BV/TV: distal femur metaphysis; for SMI / Tb.N / Tb.Sp / Tb.Th / Ct. Ar / Ct. BV / Ct. Mat.M.Dn / Ct. Ps.Ar / Ct. Th / Ec. Ar / BV/TV: 50 mg/kg, 6 weeks; for SMI / Tb.N / Tb.Sp / Tb.Th / Ct. Ar / Ct. BV / Ct. Mat.M.Dn / Ct. Ps.Ar / Ct. Th / Ec. Ar / Ct. TV / BV/TV: mean; for Ct. Ar / Ct. BV / Ct. Mat.M.Dn / Ct. Ps.Ar / Ct. Th / Ec. Ar / Ct. TV: femoral midshaft; for Ct. TV: GSK126 50 mg/kg daily IP 6 weeks; for BV/TV: trabecular bone. How it is done:
The effects of GSK126 administration on the skeleton was evaluated in an estrogen-deficient ovariectomy (OVX) model. At about 12 weeks of age, female C57BL/6 mice underwent either sham or OVX surgeries. The following day, animals received daily IP injections of GSK126 or vehicle (DMSO) at 50 mg/kg body weight for 6 weeks as described herein. To label mineralizing bone surfaces and study bone formation rates, mice received subcutaneous injections of tetracycline (25 mg/kg) 14 days prior sacrifice and calcein (10 mg/kg) at 5 days and 24 hours before euthanasia.
as §2

Each structure is given as a SMILES string.

For `C[S+]([O-])CCCCN=C=S` (racemic) [DL-SFN], in the assay with MC3T3-E1 cells, the “Runx2 mRNA expression” value is given as “stimulates”. Further, the “Fas mRNA expression” value is “not affected” in the assay with MC3T3-E1 cells (8 hours), “significantly increased” with MC3T3-E1 cells (16 hours), “not affected” with MLO-Y4 cells (8 hours) and “significantly increased” in the assay with MLO-Y4 cells (16 hours). For the same compound, the “mRNA expression of Bglap2, Colla1, Lox and Alpl” value in the assay with MC3T3-E1 cells is recorded as “increased”. Besides, the “Tet1 mRNA levels” value in the assay on RAW 264.7 cells (8 and 16 hours, Tet2 not upregulated) is “upregulated”. The “expression of the pro-apoptotic gene Fas” value with RAW 264.7 cells (8 hours) is recorded as “not at 8 hours”; with RAW 264.7 cells (16 hours) it was “up-regulated”. The “mRNA expression for Tet1 or Tet2” value in the assay on MLO-Y4 cells is recorded as “did not positively change”. Moreover, the “Tnfsf11 mRNA expression” value in the assay with MLO-Y4 cells (3 and 8 days, significant only at 8 days) was “reduced”. Also, the ECM mineralization result in assay [1] is given as “significantly increased”.

In the case of `CC[C@H](C)n1cc(C)c2c(C(=O)NCc3c(C)cc(C)[nH]c3=O)cc(-c3ccc(N4CCNCC4)nc3)cc21` [GSK126, N-[(1,2-dihydro-4,6-dimethyl-2-oxo-3-pyridinyl)methyl]-3-methyl-1-[(1S)-1-methylpropyl]-6-[6-(1-piperazinyl)-3-pyridinyl]-1H-indole-4-carboxamide], the cortical bone parameters entry with female C57BL/6 mice (adult mice, 50 mg/kg daily for 5 weeks, in words) was “increased”. Also, in the assay on female C57BL/6 mice (15 mg/kg), the “Ct. TV” value is 1.184 mm^3, the Tb.N was 3.850 mm^−1, the Tb.Sp is reported as 0.267 mm and the Tb.Th was 0.040 mm. Also, in the assay on female C57BL/6 mice (15 mg/kg), the “Ct. Ar” value is 0.719 mm^2, the “Ct. BV” value amounted to 0.509 mm^3, the “Ct. Mat.M.Dn” value is recorded as 1235 mgHA/cm^3 and the “Ct. Th” value is 0.171 mm. In addition, in the assay with female C57BL/6 mice (15 mg/kg), the “Ec. Ar” value turned out to be 0.955 mm^2 and the Ps.Ar is reported as 1.675 mm^2. Besides, in the assay on female C57BL/6 mice (50 mg/kg), the “Ct. TV” value is given as 1.243 mm^3, the Tb.N worked out at 4.053 mm^−1, the Tb.Sp came to 0.252 mm and the Tb.Th is given as 0.043 mm. In addition, in the assay on female C57BL/6 mice (50 mg/kg), the “Ct. Ar” value turned out to be 0.753 mm^2, the “Ct. BV” value was found to be 0.532 mm^3, the “Ct. Mat.M.Dn” value was found to be 1238 mgHA/cm^3 and the “Ct. Th” value stood at 0.175 mm. Moreover, in the assay with female C57BL/6 mice (50 mg/kg), the “Ec. Ar” value is given as 1.006 mm^2 and the Ps.Ar is on record as 1.758 mm^2. Besides, in assay [2] (OVX), the SMI worked out at 3.758, the Tb.N was determined as 2.102 mm^−1, the Tb.Sp is on record as 0.499 mm and the Tb.Th is on record as 0.047 mm. Further, in assay [2] (OVX), the “Ct. Ar” value came to 0.771 mm^2, the “Ct. BV” value came out at 0.405 mm^3, the “Ct. Mat.M.Dn” value is listed as 1067 mgHA/cm^3 and the “Ct. Ps.Ar” value stood at 0.809 mm^2. Further, in assay [2] (OVX), the “Ct. Th” value was determined as 0.19 mm, the “Ec. Ar” value was 0.038 mm^2, the “Ct. TV” value stood at 0.425 mm^3 and the BV/TV was determined as 1.404%. In assay [2] (SHAM), the SMI is 4.168, the Tb.N amounted to 2.496 mm^−1, the Tb.Sp stood at 0.402 mm and the Tb.Th worked out at 0.042 mm. Also, in assay [2] (SHAM), the “Ct. Ar” value came to 0.782 mm^2, the “Ct. BV” value is given as 0.411 mm^3, the “Ct. Mat.M.Dn” value is 1065 mgHA/cm^3 and the “Ct. Ps.Ar” value was found to be 0.82 mm^2. For the same compound, in assay [2] (SHAM), the “Ct. Th” value is listed as 0.197 mm, the “Ec. Ar” value was 0.037 mm^2, the “Ct. TV” value is 0.430 mm^3 and the BV/TV amounted to 1.642%. Moreover, the “OVX-induced cortical bone loss” value in assay [2] (ovariectomized female mice, daily regimen, in words) is “mitigated”.

`C[S+]([O-])CCCCN=C=S` [L-SFN]: the “Fas mRNA expression” value in the assay with MC3T3-E1 cells (8 hours) and in the assay on MLO-Y4 cells (8 hours) was “not affected” throughout. Further, the “mRNA expression of Bglap2, Colla1, Lox and Alpl” value in the assay on MC3T3-E1 cells is recorded as “increased”. Besides, the “expression of the pro-apoptotic gene Fas” value in the assay with RAW 264.7 cells (8 hours) is given as “not at 8 hours”; with RAW 264.7 cells (16 hours), “up-regulated”. Also, the ECM mineralization entry in assay [1] is recorded as “significantly increased”.

These data come from patent US20180133211A1, “METHODS AND MATERIALS FOR PROMOTING BONE FORMATION” (Mayo Foundation for Medical Education and Research, priority 2015, published 2018).
